Experimental data reported in US20250275976A1, “Methods of Treating Neuroinflammatory Conditions” (Athira Pharma, Inc., priority 2022, published 2025).
Square brackets hold non-standard residues; d marks the D form. Peptide text beside a SMILES is read from it. * marks the point of attachment. Hexanoyl = CCCCCC(=O)*; Ahx = NCCCCCC(=O)O

Key:
[1] = system: dopaminergic (DA) neurons; test: TH+ neuron number and neurite network after MPP+, rotenone or 6-OHDA injury; assay type: cell-based, rat (Wistar); design: key to Neurite Network (significance vs insult) / TH+ neuron number (significance vs insult): “NS” indicates that the comparison was not statistically significant; “+” indicates that p<0.05
Excerpt: A range of neurodegenerative disease states converge on neuroinflammatory dysfunction related to mitochondrial impairment and the generation of reactive oxygen species (ROS). Chemical disruption of mitochondrial function by treatment of neuron cultures with 1-methyl-4-phenylpyridium (MPP+) or the pesticide rotenone can lead to activation of inflammatory signaling pathways and death via apoptotic and necrotic mechanisms. Similarly, intracellular oxidation of 6-hydroxydopamine (6-OHDA), which is readily absorbed by dopaminergic neurons in culture, leads to production of ROS within the cell, activation of inflammatory signaling, and cell death. In vitro exposure to these neurotoxins has been successfully used to model the effects of neurodegenerative inflammation and identify therapeutic agents that can protect neurons from these effects.
Midbrain tissue obtained from 15-day old rat (Wistar) embryos was dissected and the ventral mesencephalic region, an area rich in dopaminergic (DA) neurons was removed and dissociated by trypsinization and mechanical passage. Cells were cultured in Neurobasal medium supplemented with B27 (2%), L-glutamine (2 mM), 2% of Penicillin-Streptomycin (PS) solution, 10 ng/mL of Brain-derived neurotrophic factor (BDNF) and 1 ng/mL of Glial-Derived Neurotrophic Factor (GDNF).
Viable cells were seeded at a density of 40,000 cells/well in 96-well plates and maintained at 37° C. in 5% CO2. […] Subsequently, chemical insults were added to the culture in separate plates as follows: 4 uM of MPP+ for 48 hours, 10 nM of rotenone for 24 hours, and 20 uM of 6-OHDA for 24 hours.
Following incubation, cell culture supernatant was replaced by a fixative solution of 4% paraformaldehyde in PBS for 20 minutes and prepared for immunostaining. Fixed cultures were stained with a monoclonal anti-Tyrosine Hydroxylase (TH) antibody (1:10000 in PBS, 2 hrs, RT) followed by incubation with appropriate fluorescent secondary antibody and Hoechst dye. Automated fluorescent imaging, 20 images per well, was performed at 10× magnification. Computation image analysis was used to quantify the total number of TH+ neurons, and the total length of the neurite network. Statistical analysis using a one-way ANOVA followed by Fishers LSD test compared inflammatory insult cultures with and without test compound treatment.

BV2 microglia = test: Nitrite production in LPS-stimulated BV2 microglia (Griess Reagent System); assay type: cell-based; design: key to Inflammatory Readout: Nitrite (significance of reduction): “NS” indicates a non-significant reduction NO production; “++” indicates a p value < 0.005 in Dunnett's multiple comparison; “+++” indicates a p value < 0.0005 in Dunnett's multiple comparison; details: for Inflammatory Readout: Nitrite (significance of reduction): LPS pre-treatment 45 minutes, compound 23.5 hours
Excerpt: Microglia are the resident immune cells of the brain and, when activated by pathological conditions, promote broad-spectrum neuroinflammation. When activated by toxic exogenous substances, microglia produce excessive reactive oxygen species (ROS), nitric oxide (NO), and proinflammatory cytokines, which further propagates disease pathogenesis. BV2 microglia were used as an in-vitro cell model to evaluate mechanisms relevant to inflammation in the CNS. Upon activation of TLR4 with LPS, microglia are activated and trigger excessive oxidative stress, a process that is partially mediated by AKT phosphorylation (pAKT) and activation. Microglia activation also leads to a range of changes in gene expression.
Compound A19 active metabolite (Compound A19-AM) was investigated for whether it could reduce the inflammatory effect of LPS in microglia. Inflammatory activation of BV2 microglia cells was stimulated by pre-treatment with LPS for 45 minutes, followed by the addition of test compound for 1 hour (pAKT) or 23.5 hours (NO and gene expression panel). For pAKT measurement, cells were lysed and the pAKT measurement was conducted using the HTRF system. For NO production, culture supernatants were collected and assessed for the presence of nitrite, a primary metabolic product of nitric oxide.
Quantification of nitrite production in cell culture supernatants was accomplished using the Griess Reagent System (Promega, G2930). Measurement of pAKT was assessed utilizing Phospho-AKT 1/2/3 (Ser473) […] Cellular Detection Kit (CisBio, 64AKSPEH).
Data analysis was performed via One-way ANOVA with Dunnett's multiple comparisons test compared to LPS-stimulated, vehicle treated cultures using Prism statistical software (GraphPad). Tabular data indicates significance of reduction in the indicated analyte at the indicated dose.

[2] = 6-OHDA injury (20 uM, 24 hrs), dose 0.01 nM
[3] = 6-OHDA injury (20 uM, 24 hrs), dose 0.1 nM
[4] = 6-OHDA injury (20 uM, 24 hrs), dose 1 nM
[5] = 6-OHDA injury (20 uM, 24 hrs), dose 10 nM
[6] = 6-OHDA injury (20 uM, 24 hrs), dose 100 nM
[7] = 6-OHDA injury (20 uM, 24 hrs), dose 1000 nM
[8] = MPP+ injury (4 uM, 48 hrs), dose 0.01 nM
[9] = MPP+ injury (4 uM, 48 hrs), dose 0.1 nM
[10] = MPP+ injury (4 uM, 48 hrs), dose 1 nM
[11] = MPP+ injury (4 uM, 48 hrs), dose 10 nM
[12] = MPP+ injury (4 uM, 48 hrs), dose 100 nM
[13] = MPP+ injury (4 uM, 48 hrs), dose 1000 nM
[14] = Rotenone injury (10 nM, 24 hrs), dose 0.01 nM
[15] = Rotenone injury (10 nM, 24 hrs), dose 0.1 nM
[16] = Rotenone injury (10 nM, 24 hrs), dose 1 nM
[17] = Rotenone injury (10 nM, 24 hrs), dose 10 nM
[18] = Rotenone injury (10 nM, 24 hrs), dose 100 nM
[19] = Rotenone injury (10 nM, 24 hrs), dose 1000 nM

## CCCCCC(=O)N[C@@H](Cc1ccc(O)cc1)C(=O)N[C@H](C(=O)NCCCCCC(N)=O)[C@@H](C)CC [Compound A19 active metabolite, dihexa] (Hexanoyl-Tyr-Ile-[Ahx]-NH2)
[1]; [2]
  Neurite Network (significance vs insult): NS
  TH+ neuron number (significance vs insult): NS
[1]; [3]
  Neurite Network (significance vs insult): NS
  TH+ neuron number (significance vs insult): NS
[1]; [4]
  Neurite Network (significance vs insult): NS
  TH+ neuron number (significance vs insult): + (“+” indicates that p<0.05)
[1]; [5]
  Neurite Network (significance vs insult): + (“+” indicates that p<0.05)
  TH+ neuron number (significance vs insult): + (“+” indicates that p<0.05)
[1]; [6]
  Neurite Network (significance vs insult): + (“+” indicates that p<0.05)
  TH+ neuron number (significance vs insult): + (“+” indicates that p<0.05)
[1]; [7]
  Neurite Network (significance vs insult): + (“+” indicates that p<0.05)
  TH+ neuron number (significance vs insult): + (“+” indicates that p<0.05)
[1]; [8]
  Neurite Network (significance vs insult): NS
  TH+ neuron number (significance vs insult): NS
[1]; [9]
  Neurite Network (significance vs insult): NS
  TH+ neuron number (significance vs insult): NS
[1]; [10]
  Neurite Network (significance vs insult): NS
  TH+ neuron number (significance vs insult): + (“+” indicates that p<0.05)
[1]; [11]
  Neurite Network (significance vs insult): NS
  TH+ neuron number (significance vs insult): + (“+” indicates that p<0.05)
[1]; [12]
  Neurite Network (significance vs insult): + (“+” indicates that p<0.05)
  TH+ neuron number (significance vs insult): + (“+” indicates that p<0.05)
[1]; [13]
  Neurite Network (significance vs insult): + (“+” indicates that p<0.05)
  TH+ neuron number (significance vs insult): + (“+” indicates that p<0.05)
[1]; MPP+, rotenone, 6-OHDA
  Neurotoxic impact of inflammatory-relevant chemical insults (result in words): reduces the neurotoxic impact of inflammatory-relevant chemical insults
[1]; [14]
  Neurite Network (significance vs insult): NS
  TH+ neuron number (significance vs insult): NS
[1]; [15]
  Neurite Network (significance vs insult): NS
  TH+ neuron number (significance vs insult): NS
[1]; [16]
  Neurite Network (significance vs insult): NS
  TH+ neuron number (significance vs insult): NS
[1]; [17]
  Neurite Network (significance vs insult): NS
  TH+ neuron number (significance vs insult): + (“+” indicates that p<0.05)
[1]; [18]
  Neurite Network (significance vs insult): + (“+” indicates that p<0.05)
  TH+ neuron number (significance vs insult): + (“+” indicates that p<0.05)
[1]; [19]
  Neurite Network (significance vs insult): + (“+” indicates that p<0.05)
  TH+ neuron number (significance vs insult): + (“+” indicates that p<0.05)
BV2 microglia; LPS-stimulated BV2
  Production of nitrite (result in words): significantly reduced
BV2 microglia; dose 0.01 nM
  Inflammatory Readout: Nitrite (significance of reduction): ++ (“++” indicates a p value < 0.005 in Dunnett's multiple comparison)
BV2 microglia; dose 1 nM
  Inflammatory Readout: Nitrite (significance of reduction): +++ (“+++” indicates a p value < 0.0005 in Dunnett's multiple comparison)
BV2 microglia; dose 10 nM
  Inflammatory Readout: Nitrite (significance of reduction): NS
